Each structure is given as a SMILES string.

This passage reports AC50 cell viability and efficacy results from the supplement of paper PMC10290057.

The test system of assay [1] is HCT116. Description: AC50 cell viability (CellTiter-Glo); higher = less potent. The note with it: 48 h.
Assay [2] has as its system HCT116. The experiment in a line: efficacy (fitted maximal change in viability relative to DMSO control); higher = less cytotoxic (negative = loss of viability). The note with it: 48 h.
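Throughout, for AC50 cell viability (CellTiter-Glo): HCT116 colorectal carcinoma cells screened at five concentrations per compound, luminescent viability scaled between DMSO wells and empty wells on each plate, curves fitted per compound.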
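Throughout, for efficacy (fitted maximal change in viability relative to DMSO control): Luminescence-based viability readout, five doses per compound, normalized against on-plate DMSO and empty-well controls, followed by dose-response curve fitting for every drug.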

Compound `c1cc(-c2cnn3cc(-c4ccc(N5CCNCC5)cc4)cnc23)c2cccnc2c1` gave an AC50 cell viability in the assay with HCT116 [1] of 6.61 µM. The efficacy in the assay on HCT116 [2] is -81.9%.

`CC(/C=C/[C@@H]1C[C@]1(C)c1ccc2c(c1)C(C)(C)CCC2(C)C)=C\C(=O)O` displayed an AC50 cell viability in the assay on HCT116 [1] of 23.5 µM. For the same compound, the efficacy with HCT116 [2] was -66.8%.

On to `CC(C)(C)Cn1c(N)nc2ccc(-c3[nH]c(C(C)(C)C)nc3-c3ccc(F)cc3)nc21`, for which the AC50 cell viability with HCT116 [1] was found to be 23.5 µM. Further, the efficacy with HCT116 [2] is -83.7%.

Take `Cc1[nH]c(/C=C2\C(=O)Nc3ccc(F)cc32)c(C)c1C(=O)NC[C@H](O)CN1CCOCC1`: the AC50 cell viability with HCT116 [1] was determined as 2.63 µM. Moreover, the efficacy with HCT116 [2] was -73%.

`Cc1cnc(Nc2ccc(OCCN3CCCC3)cc2)nc1Nc1cccc([S+](=O)([O-])NC(C)(C)C)c1` came in with an AC50 cell viability in the assay on HCT116 [1] of 2.63 µM. The efficacy in the assay on HCT116 [2] is -109%.

For the compound `Cc1cc(N2CCOCC2)ccc1Nc1nc(NC2CCCCC2)c2nc[nH]c2n1`, the AC50 cell viability in the assay on HCT116 [1] worked out at 6.61 µM. In the assay with HCT116 [2], the efficacy was -59.2%.

The compound `Cc1ccc(C(C)(O)c2nc3ccccc3s2)c(C)c1` (stereo unspecified) registered an AC50 cell viability with HCT116 [1] of 16.6 µM. Besides, the efficacy in the assay on HCT116 [2] was -43.4%.

Compound `Cc1ccc([S+](=O)([O-])Cc2nc(-c3ccc(C(=O)NCc4cccnc4)cc3)oc2C)cc1` showed an AC50 cell viability in the assay with HCT116 [1] of 0.0372 µM. Also, in the assay with HCT116 [2], the efficacy is -90.9%.

As for `Cc1c[nH]c(-c2cnc(NCCNc3ccc(C#N)cn3)nc2-c2ccc(Cl)cc2Cl)n1`, the AC50 cell viability with HCT116 [1] came out at 26.3 µM. Moreover, the efficacy with HCT116 [2] is -72.6%.

For the compound `Cc1cccc(-c2[nH]c(C(C)(C)C)nc2-c2ccc3nccnc3c2)n1`, the AC50 cell viability with HCT116 [1] turned out to be 20.9 µM. In addition, in the assay on HCT116 [2], the efficacy is -85.8%.

`Cc1nc2ccc(-n3ncc(C(=O)c4cc5ccccc5[nH]4)c3N)cc2[nH]1` showed an AC50 cell viability in the assay with HCT116 [1] of 8.33 µM. In addition, the efficacy with HCT116 [2] was -71.3%.

In the assay with HCT116 [1], `CC1CC2=CC=CC=C2N1C(=O)C\C3=N\C(=O)\C=C(/N3)N4CCOCC4` (stereo unspecified) returned an AC50 cell viability of 18.6 µM. Further, the efficacy with HCT116 [2] was -57.5%.

`CCc1cncnc1N1CCN(Cc2nc3cc(C(F)(F)F)ccc3[nH]2)CC1` displayed an AC50 cell viability in the assay on HCT116 [1] of 14.8 µM. In addition, the efficacy in the assay on HCT116 [2] was -42.6%.

For the compound `CCc1cnn2c(NCc3ccc[n+]([O-])c3)cc(N3CCCC[C@H]3CCO)nc12`, the AC50 cell viability with HCT116 [1] was determined as 0.0148 µM. Moreover, the efficacy in the assay on HCT116 [2] was -67.1%.

Consider `CCN(CC)CCCC(C)Nc1nc(C)cc(Nc2ccc3nc(C)cc(N)c3c2)n1` (stereo unspecified), for which, in the assay on HCT116 [1], the AC50 cell viability is 20.9 µM. In the assay with HCT116 [2], the efficacy is -54.4%.

The compound `CCN(CC)CCCCNc1ncc2cc(-c3cc(OC)cc(OC)c3)c(NC(=O)NC(C)(C)C)nc2n1` displayed an AC50 cell viability in the assay on HCT116 [1] of 18.6 µM. In addition, the efficacy with HCT116 [2] is -117%.

Take `CCN1CCN(CC1)CC(=O)NC2=CC=C(C3=C2C4=C(S3)C=CC=C4)C5=C6O\C(=C/C(=O)C6=CC=C5)N7CCOCC7`: the AC50 cell viability in the assay with HCT116 [1] came out at 1.29 µM. For the same compound, the efficacy with HCT116 [2] was -81.5%.

On to `CCN1\C(=C(C(=O)NC)/C(=O)C2=C1N=C(C=C2)C#CC(C)(O)COC)N` (stereo unspecified), for which, in the assay on HCT116 [1], the AC50 cell viability is 18.6 µM. Moreover, the efficacy in the assay with HCT116 [2] is -31.1%.

Consider `CCNC(=O)C#Cc1ccc2c(c1)NC(=O)/C2=C(\Nc1ccc(CN(C)C)cc1)c1ccccc1`, for which, in the assay on HCT116 [1], the AC50 cell viability was 0.257 µM. Besides, in the assay with HCT116 [2], the efficacy was -104%.

Regarding `CCNC(=O)Nc1ccc(Oc2ncnc(N)c2/C=N/OC)cc1Cl`, the AC50 cell viability in the assay with HCT116 [1] came to 23.5 µM. Besides, the efficacy in the assay on HCT116 [2] is -70.7%.

`CCOC(=O)N1CCN(/[N+]([O-])=N/Oc2ccc([N+](=O)[O-])cc2[N+](=O)[O-])CC1` returned an AC50 cell viability with HCT116 [1] of 18.6 µM. Also, in the assay on HCT116 [2], the efficacy was -71.8%.

In turn, `CCn1c(-c2nonc2N)nc2cnc(Oc3cccc(NC(=O)c4ccc(OCCN5CCOCC5)cc4)c3)cc21` registered an AC50 cell viability with HCT116 [1] of 10.5 µM. Besides, in the assay with HCT116 [2], the efficacy was -79.2%.

`CN(C)CCN(C)C(=O)c1ccc(NC(=O)Nc2ccc(-c3nc(N4CCOCC4)c4ccn(CC(F)(F)F)c4n3)cc2)cc1`: in the assay on HCT116 [1], the AC50 cell viability came to 0.263 µM. In addition, the efficacy with HCT116 [2] was -118%.

Consider `Cn1cc(-c2cnn3c(N)c(Br)c([C@@H]4CCCNC4)nc23)cn1`, for which the AC50 cell viability in the assay on HCT116 [1] came to 13.2 µM. In addition, the efficacy in the assay on HCT116 [2] is -108%.

The compound `CN1CCC(CC1)COC2=CN=C(N=C2)C3=CC(=CC=C3)CN4/N=C(\C=C/C4=O)C5=CC(=CC=C5)C#N` yielded an AC50 cell viability in the assay with HCT116 [1] of 7.42 µM. Also, the efficacy in the assay with HCT116 [2] is -30.6%.

`COc1ccccc1N1CCN(CCN(C(=O)C2CCCCC2)c2ccccn2)CC1` had an AC50 cell viability in the assay on HCT116 [1] of 13.2 µM. In addition, in the assay on HCT116 [2], the efficacy was -31.7%.

Compound `COc1cc2c(Nc3ccc(NC(=O)c4ccccc4)cc3)ncnc2cc1OCCCN1CCOCC1` gave an AC50 cell viability in the assay with HCT116 [1] of 18.6 µM. Besides, the efficacy in the assay on HCT116 [2] was -120%.

Consider `COc1ccc(OC)c(-c2nnc3ccc(-c4ccc(OC)c(O[C@@H]5CCOC5)c4)nn23)c1`, for which the AC50 cell viability in the assay with HCT116 [1] is 2.95 µM. Also, the efficacy in the assay with HCT116 [2] is -66.5%.
